The record followed here is patent US4098778A, “β-Endorphin analog” (Hoffmann-La Roche Inc., priority 1977, dated 1978).

The subject of one assay is guinea pig ileum. Description: In vitro opiate activity, guinea pig ileum method of Kosterlitz et al. It counts as cell-based. As to conditions: for In vitro opiate activity: guinea pig ileum, βc-endorphin = 100. The text has this: The opiate activity of the peptide of the invention, the parent peptide and other fragment analogs thereof as assayed in vitro by the guinea pig ileum method of Kosterlitz et al., Brit. J. Pharmacol. 39, 398 (1970) is seen in Table 2 below.

The test system of another assay is mice. Description: Analgesic activity in mice by the tail-flick method, peptide injected icv. As to conditions: for In vivo analgesic activity Relative Potency: molar basis, βc-endorphin = 100; for In vivo analgesic activity AD50: tail-flick, male ICR mice, (95% confidence limit). It counts as in vivo. How it is done: The analgesic activity of the synthetic products was assessed in mice by the tail-flick method of D'Amour and Smith J. Pharmacol. Exp. Ther. 72, 74 (1941). Male ICR mice weighing 25-30 g were used. The peptide was injected icv in a volume of 5 μl as described by Haley and McCormick, Br. J. Pharmacol. 12, 12 (1957). To evaluate the tail-flick response, a control latency (T0) was obtained from the mean of two latencies determined prior to the peptide injection; the test latencies (T1) were determined at various times after injection for each animal. "Percent analgesia" was calculated as [(T1 -T0)/(T2 -T0)] × 100; where the cutoff time (T2) was 10 sec. With a twofold increase in latency of reaction time of the reponse as a quantal index of inhibition, the median antinociceptive dose (AD50) and 95% confidence limits were calculated as described by Litchfield and Wilcoxon, J. Pharmacol. Exp. Ther. 96, 99 (1949).
Background: Hot-plate and tail-flick tests time the reaction to a heat stimulus.

Take βc -Endorphin-(1-5)-(28-31): the “In vitro opiate activity” value in the assay with guinea pig ileum is listed as 35. Further, the “In vivo analgesic activity Relative Potency” value in the assay with mice is given as < 0.1. Moreover, the “In vivo analgesic activity AD50” value in the assay with mice (icv) is listed as > 86 μg/mouse.

On to “βc -endorphin (6-31) (TSEKSQTPLVTLFKNAIIKNAHKKGQ; Beta-endorphin; UniProt P01203 6-31, looked up, fragment) [βc -Endorphin-(6-31)]”, for which the “reversal of activity by naloxone” value with guinea pig ileum (activity as assayed in vitro) is on record as “not reversed by naloxone”. For the same substance, in the assay with guinea pig ileum, the “In vitro opiate activity” value is on record as 4. Also, the “potency relative to βc-endorphin as assayed in vitro” value in the assay with guinea pig ileum (of βc-endorphin) came to 4%. The “inhibition of the tail-flick response” value in the assay on mice (doses of 42.5 and 85 μg, icv, mice) was “slight inhibition of the tail-flick response”. Also, the “analgesic activity (tail flick method)” value with mice (mice) is “intrinsic measurable analgesic activity”. The “In vivo analgesic activity Relative Potency” value in the assay with mice is on record as < 0.1. In addition, the “In vivo analgesic activity AD50” value with mice (icv) is given as > 86 μg/mouse.

With “βc -endorphin (YGGFMTSEKSQTPLVTLFKNAIIKNAHKKGQ; Beta-endorphin; UniProt P01203 1-31, looked up) [parent peptide]”, in the assay on guinea pig ileum, the “In vitro opiate activity” value came to 100. Moreover, the “In vivo analgesic activity Relative Potency” value in the assay on mice is given as 100. The “In vivo analgesic activity AD50” value in the assay on mice (icv) is reported as 0.11 (0.07-0.17) μg/mouse.

For βh -Endorphin-(1-5)-(16-31), the “In vitro opiate activity” value with guinea pig ileum worked out at 135. Also, the “In vivo analgesic activity Relative Potency” value in the assay with mice was 0.3. Moreover, in the assay with mice (icv), the “In vivo analgesic activity AD50” value is on record as 25.1(16.8-37.1) μg/mouse.
